# Source: ChEMBL document CHEMBL3822381, “Design, synthesis, and evaluation of Trolox-conjugated amyloid-β C-terminal peptides for therapeutic intervention in an in vitro model of Alzheimer's disease” (Bioorg Med Chem, 2016)
# The source made the active and inactive calls. The rule behind the calls is not given here. Residues, ends and D or L forms follow the SMILES beside them. *: point of attachment. Trolox = Cc1c(C)c2c(c(C)c1O)CCC(C)(C(=O)*)O2
# How the values were obtained:
# [1] = target: Amyloid-beta precursor protein (Homo sapiens) (UniProt P05067); experiment: Inhibition of amyloid beta (1 to 42) (unknown origin) aggregation at 80 uM by ThT-fluorescence assay relative to control
# [2] = tested on: SH-SY5Y; experiment: Neuroprotective activity against amyloid beta (1 to 42)-induced neurotoxicity in human SH-SY5Y cells assessed as increase in cell viability at 5 to 40 uM measured after 48 hrs by WST-8 assay; format: functional, cell-based
# [3] = tested on: SH-SY5Y; experiment: Neuroprotective activity against amyloid beta (1 to 42)-induced neurotoxicity in human SH-SY5Y cells assessed as increase in cell viability at 40 uM measured after 48 hrs by WST-8 assay; format: functional, cell-based
# [4] = tested on: SH-SY5Y; experiment: Antioxidant activity in human SH-SY5Y cells assessed as inhibition of H2O2-induced ROS production preincubated for 1 day prior H2O2 treatment at 25 uM by DCFH-DA-based fluorescence analysis; format: functional, cell-based
# [5] = tested on: SH-SY5Y; experiment: Neuroprotective activity against amyloid beta (1 to 42)-induced neurotoxicity in human SH-SY5Y cells assessed as increase in cell viability measured after 48 hrs by WST-8 assay; format: functional, cell-based
# [6] = tested on: SH-SY5Y; experiment: Cytotoxicity against human SH-SY5Y cells assessed as cell viability up to 40 uM measured after 48 hrs by WST-8 assay; format: cell-based
# [7] = tested on: SH-SY5Y; experiment: Antioxidant activity against human SH-SY5Y cells assessed as amyloid beta (1 to 42)-induced ROS production preincubated for 1 day prior H2O2 treatment at 1.25 uM by DCFH-DA-based fluorescence analysis relative to control; format: functional
# [8] = tested on: SH-SY5Y; experiment: Neuroprotective activity against amyloid beta (1 to 42)-induced neurotoxicity in human SH-SY5Y cells assessed as increase in cell viability at 20 uM measured after 48 hrs by WST-8 assay; format: functional, cell-based
# Amyloid-beta precursor protein (Homo sapiens), sequence (P05067 whole entry): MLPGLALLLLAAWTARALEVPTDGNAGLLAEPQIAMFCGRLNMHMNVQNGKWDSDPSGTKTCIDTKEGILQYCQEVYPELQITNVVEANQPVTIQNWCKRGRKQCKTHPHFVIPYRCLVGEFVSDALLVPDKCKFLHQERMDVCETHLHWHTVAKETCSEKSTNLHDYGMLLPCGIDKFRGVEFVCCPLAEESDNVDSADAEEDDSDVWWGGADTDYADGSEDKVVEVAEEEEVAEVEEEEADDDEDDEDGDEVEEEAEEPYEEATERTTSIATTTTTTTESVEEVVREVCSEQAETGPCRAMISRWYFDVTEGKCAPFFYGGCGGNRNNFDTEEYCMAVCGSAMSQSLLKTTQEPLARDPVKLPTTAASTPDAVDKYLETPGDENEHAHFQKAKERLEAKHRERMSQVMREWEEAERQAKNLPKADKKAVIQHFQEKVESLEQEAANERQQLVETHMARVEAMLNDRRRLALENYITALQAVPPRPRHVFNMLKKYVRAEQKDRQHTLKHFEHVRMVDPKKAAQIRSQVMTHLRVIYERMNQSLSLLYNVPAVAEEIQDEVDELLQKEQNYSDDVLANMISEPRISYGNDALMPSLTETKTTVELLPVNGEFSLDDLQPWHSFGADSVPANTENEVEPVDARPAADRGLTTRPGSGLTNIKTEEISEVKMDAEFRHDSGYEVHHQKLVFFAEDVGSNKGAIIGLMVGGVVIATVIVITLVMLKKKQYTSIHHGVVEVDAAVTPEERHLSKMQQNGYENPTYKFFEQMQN
inhibition [1],Compound,other results
2.8%,CC[C@H](C)[C@H](NC(=O)[C@@H](NC(=O)C1(C)CCc2c(C)c(O)c(C)c(C)c2O1)C(C)C)C(=O)N[C@@H](C)C(=O)O (stereo partly drawn),–
39.5%,CC[C@H](C)[C@H](NC(=O)[C@@H](NC(=O)[C@@H](NC(=O)CNC(=O)CNC(=O)[C@@H](NC(=O)[C@H](CCSC)NC(=O)[C@H](CC(C)C)NC(=O)C1(C)CCc2c(C)c(O)c(C)c(C)c2O1)C(C)C)C(C)C)C(C)C)C(=O)N[C@@H](C)C(=O)O (stereo partly drawn),–
inactive,Cc1c(C)c2c(c(C)c1O)CCC(C)(C(=O)NCC(=O)N[C@H](C(=O)N[C@H](C(=O)O)C(C)C)C(C)C)O2 (stereo partly drawn),–
inactive,Cc1c(C)c2c(c(C)c1O)CCC(C)(C(=O)N[C@H](C(=O)O)C(C)C)O2 (stereo partly drawn),–
4.7%,CC[C@H](C)[C@H](NC(=O)[C@@H](NC(=O)[C@@H](NC(=O)CNC(=O)C1(C)CCc2c(C)c(O)c(C)c(C)c2O1)C(C)C)C(C)C)C(=O)N[C@@H](C)C(=O)O (stereo partly drawn) (Trolox-GVVIA-OH),–
5%,CC[C@H](C)[C@H](NC(=O)[C@@H](NC(=O)[C@@H](NC(=O)CNC(=O)C1(C)CCc2c(C)c(O)c(C)c(C)c2O1)C(C)C)C(C)C)C(=O)N[C@@H](C)C(=O)N[C@H](C(=O)O)[C@@H](C)O (stereo partly drawn) (Trolox-GVVIAT-OH),–
inactive,CSCC[C@H](NC(=O)[C@H](CC(C)C)NC(=O)C1(C)CCc2c(C)c(O)c(C)c(C)c2O1)C(=O)N[C@H](C(=O)NCC(=O)NCC(=O)N[C@H](C(=O)N[C@H](C(=O)O)C(C)C)C(C)C)C(C)C (stereo partly drawn) (Trolox-LMVGGVV-OH),–
40.4%,CC[C@H](C)[C@H](NC(=O)[C@@H](NC(=O)[C@@H](NC(=O)CNC(=O)CNC(=O)[C@@H](NC(=O)[C@H](CCSC)NC(=O)[C@H](CC(C)C)NC(=O)C1(C)CCc2c(C)c(O)c(C)c(C)c2O1)C(C)C)C(C)C)C(C)C)C(=O)N[C@@H](C)C(=O)N[C@H](C(=O)O)[C@@H](C)O (stereo partly drawn) (Trolox-LMVGGVVIAT-OH),–
inactive,Cc1c(C)c2c(c(C)c1O)CCC(C)(C(=O)N[C@H](C(=O)NCC(=O)NCC(=O)N[C@H](C(=O)N[C@H](C(=O)O)C(C)C)C(C)C)C(C)C)O2 (stereo partly drawn) (Trolox-VGGVV-OH),Activity [2]: inactive
17.7%,CC[C@H](C)[C@H](NC(=O)[C@@H](NC(=O)[C@@H](NC(=O)CNC(=O)CNC(=O)[C@@H](NC(=O)C1(C)CCc2c(C)c(O)c(C)c(C)c2O1)C(C)C)C(C)C)C(C)C)C(=O)N[C@@H](C)C(=O)O (stereo partly drawn) (Trolox-VGGVVIA-OH),Activity [3]: Active; inhibition [4]: Active; Activity [5]: Dose-dependent effect; Activity [6]: Non-toxic; Activity [7]: 37.6%
17.3%,CC[C@H](C)[C@H](NC(=O)[C@@H](NC(=O)[C@@H](NC(=O)CNC(=O)CNC(=O)[C@@H](NC(=O)C1(C)CCc2c(C)c(O)c(C)c(C)c2O1)C(C)C)C(C)C)C(C)C)C(=O)N[C@@H](C)C(=O)N[C@H](C(=O)O)[C@@H](C)O (stereo partly drawn) (Trolox-VGGVVIAT-OH),Activity [3]: inactive; Activity [8]: Active; Activity [6]: Non-toxic
6.6%,CC[C@H](C)[C@H](NC(=O)[C@@H](NC(=O)C1(C)CCc2c(C)c(O)c(C)c(C)c2O1)C(C)C)C(=O)N[C@@H](C)C(=O)N[C@H](C(=O)O)[C@@H](C)O (stereo partly drawn) (Trolox-VIAT-OH),–
–,Cc1c(C)c2c(c(C)c1O)CCC(C)(C(=O)O)O2 (stereo not drawn) [TROLOX],inhibition [4]: Active; Activity [7]: 23.6%
